ChEMBL document CHEMBL3243950, “New inhibitors of steroid 11beta-hydroxylase. Structure--activity relationship studies of metyrapone-like compounds” (J Med Chem, 1977)

Assays:
[1] = target: T1, Cytochrome P450 11B1, mitochondrial (Bos taurus, UniProt P15150); experiment: Inhibition of bovine adrenal gland 11beta-hydroxylase assessed as inhibition of [14C]-deoxycorticosterone hydroxylation at 2 uM; conditions: cattle
T1 sequence (P15150 whole entry): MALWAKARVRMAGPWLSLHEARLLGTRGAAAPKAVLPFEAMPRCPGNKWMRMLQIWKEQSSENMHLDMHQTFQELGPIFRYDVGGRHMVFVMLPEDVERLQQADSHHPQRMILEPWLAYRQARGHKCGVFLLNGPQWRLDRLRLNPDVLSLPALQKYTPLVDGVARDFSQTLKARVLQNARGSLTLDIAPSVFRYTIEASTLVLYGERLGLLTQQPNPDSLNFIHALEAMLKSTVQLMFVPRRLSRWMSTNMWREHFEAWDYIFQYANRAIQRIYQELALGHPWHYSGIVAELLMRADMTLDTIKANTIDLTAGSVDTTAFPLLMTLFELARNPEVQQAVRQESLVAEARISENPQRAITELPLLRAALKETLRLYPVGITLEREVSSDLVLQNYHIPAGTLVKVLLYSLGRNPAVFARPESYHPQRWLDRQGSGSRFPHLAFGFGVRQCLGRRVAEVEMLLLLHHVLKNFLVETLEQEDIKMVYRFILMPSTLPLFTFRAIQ

[2] = target: T1, Cytochrome P450 11B1, mitochondrial; experiment: Inhibition of bovine adrenal gland 11beta-hydroxylase assessed as inhibition of [14C]-deoxycorticosterone hydroxylation at 2 uM relative to metyrapone; conditions: cattle
[3] = target: T1, Cytochrome P450 11B1, mitochondrial; experiment: Inhibition of bovine adrenal gland 11beta-hydroxylase assessed as amount of corticosterone production using 11 nmol [14C]-deoxycorticosterone measured per 5 mins at 2 nmol; conditions: cattle
[4] = target: T1, Cytochrome P450 11B1, mitochondrial; experiment: Inhibition of bovine adrenal gland 11beta-hydroxylase assessed as amount of corticosterone production using 11 nmol [14C]-deoxycorticosterone measured per 5 mins at 2 nmol (reference value: 1.3 +/- 0.04 nmol); conditions: cattle
[5] = target: T1, Cytochrome P450 11B1, mitochondrial; experiment: Inhibition of bovine adrenal gland 11beta-hydroxylase assessed as amount of corticosterone production using 22 nmol [14C]-deoxycorticosterone measured per 5 mins at 2 nmol; conditions: cattle
[6] = target: T1, Cytochrome P450 11B1, mitochondrial; experiment: Inhibition of bovine adrenal gland 11beta-hydroxylase assessed as amount of corticosterone production using 22 nmol [14C]-deoxycorticosterone measured per 5 mins at 2 nmol (reference value: 1.3 +/- 0.04 nmol); conditions: cattle
[7] = target: T1, Cytochrome P450 11B1, mitochondrial; experiment: Inhibition of bovine adrenal gland 11beta-hydroxylase assessed as inhibition of [14C]-deoxycorticosterone hydroxylation

inhibition at 2 µM [1]	Ratio [2]	SMILES	also measured
35%	0.52	O=C(c1cccnc1)C(c1ccccc1)c1cccnc1 (stereo not drawn)	–
22%	0.32	O=C(c1ccccc1)C(c1ccccc1)c1cccnc1 (stereo not drawn)	–
15%	0.22	O=C(c1cccnc1)C(c1ccccc1)c1ccccc1	–
9%	0.13	O=C(Cc1ccccc1)c1cccnc1	–
13%	0.19	CC(C(=O)c1cccnc1)c1ccccc1 (stereo not drawn)	–
44%	0.65	OC(c1ccccc1)C(c1ccccc1)c1cccnc1 (stereo not drawn)	–
17%	0.25	OC(c1cccnc1)C(c1ccccc1)c1ccccc1 (stereo not drawn)	–
44%	0.65	CC(C(=O)c1ccccc1)c1cccnc1 (stereo not drawn)	–
15%	0.22	O=C(Cc1cccnc1)c1ccccc1	–
9%	0.13	OC(c1cccnc1)C(c1ccccc1)c1cccnc1 (racemic)	–
7%	0.1	OC(Cc1cccnc1)c1cccnc1 (racemic)	–
28%	0.41	C[C@@H](c1cccnc1)[C@@H](O)c1cccnc1 (relative stereo)	–
44%	0.65	CC(C)(c1cccnc1)C(O)c1cccnc1 (stereo not drawn) [METYRAPOL]	–
68%	1	CC(C)(C(=O)c1cccnc1)c1cccnc1 [METYRAPONE]	inhibition (INH) [3]: 70%; Activity [4]: 0.39 nmol; inhibition (INH) [5]: 68%; Activity [6]: 0.74 nmol; Ki [7]: 580 nM
